Source: US7132446B1, “Isolation of a dimer di-gallate, a potent endothelium-dependent vasorelaxing compound” (University of South Florida, priority 2001, dated 2006)
Blank lines part the entries; values can stand above or below the compound they belong to.

Assays:
[1] = system: phenylephrine-contracted endothelium-intact rat aortic rings; test: Endothelium-dependent relaxation (EDR) bioassay, endothelium-intact aortic rings; format: cell-based; conditions: for threshold concentration (for 10% relaxation): intact aortic rings; for EDR activity (relaxation of endothelium-intact rings): phenylephrine-contracted endothelium-intact rings
Procedure: Aortic ring preparation and bioassay. The procedure for preparation of rat aortic rings and general aspects of determining mechanical activity has been previously described. Briefly, male Sprague-Dawley rats (200–225 g) were euthanized with an overdose of sodium pentobarbital (100 mg/kg, i.p.), bled, and the thoracic aorta excised, cleaned, and rings (3–4 mm in length) were cut, taking care not to disturb the endothelium. In some instances the endothelium was deliberately removed by gently rubbing the lumen with a curved forceps. The rings were suspended in tissue baths containing a physiologic salt solution (PSS) with the following composition (in millimolar): 118 NaCl; 4.7 KCl; 25 NaHCO3; 1.2 MgSO4; 1.2 NaH2PO4; 0.026 EDTA; 1.5 CaCl2; 11 glucose. The solution was bubbled continuously with O2/CO2 (95%/5%), and maintained at 37° C. Activity was recorded on a Grass polygraph. After equilibration for at least 1 hr under 1.5 g of tension, tissues were contracted submaximally (approximately 80% of Emax) with phenylephrine (˜1 μM), and then 3 μM acetylcholine, a known EDR-active compound, was added to the bath to test for intactness of the endothelium. Rings were washed with PSS three times over the next 45 min. prior to the next sequence. EDR activity of HPLC peaks was determined by first contracting aortic rings with phenylephrine, as above, then generating concentration-response curves for relaxation by adding each peak sample to the bath, beginning with a sub-threshold concentration and adding increasing amounts until maximum relaxation is achieved. To test for endothelium-dependence, denuded aortic rings were used. Successful endothelium removal was established by a lack of relaxation response to 3 μM acetylcholine. […] Statistical methods. Data are presented as means±SEM. EC50s were determined from concentration-response curves, utilizing nonlinear regression analysis software (GraphPad Prizm, San Diego, Calif.).

[2] = system: endothelium-denuded rat aortic rings; test: Relaxation bioassay, endothelium-denuded aortic rings; format: cell-based; conditions: de-endothelialized rings
Procedure: Aortic ring preparation and bioassay. The procedure for preparation of rat aortic rings and general aspects of determining mechanical activity has been previously described. Briefly, male Sprague-Dawley rats (200–225 g) were euthanized with an overdose of sodium pentobarbital (100 mg/kg, i.p.), bled, and the thoracic aorta excised, cleaned, and rings (3–4 mm in length) were cut, taking care not to disturb the endothelium. In some instances the endothelium was deliberately removed by gently rubbing the lumen with a curved forceps. The rings were suspended in tissue baths containing a physiologic salt solution (PSS) with the following composition (in millimolar): 118 NaCl; 4.7 KCl; 25 NaHCO3; 1.2 MgSO4; 1.2 NaH2PO4; 0.026 EDTA; 1.5 CaCl2; 11 glucose. The solution was bubbled continuously with O2/CO2 (95%/5%), and maintained at 37° C. Activity was recorded on a Grass polygraph. […] EDR activity of HPLC peaks was determined by first contracting aortic rings with phenylephrine, as above, then generating concentration-response curves for relaxation by adding each peak sample to the bath, beginning with a sub-threshold concentration and adding increasing amounts until maximum relaxation is achieved. […]

[3] = system: blood vessels in vitro; conditions: background statements; cited from earlier work

EC50 ([1]; phenylephrine-contracted intact rings): 760 nM
EC50 for relaxation of intact aortic rings ([1]; phenylephrine-contracted intact rings, mean±SEM, n=4 rats (3–6 concentration-response curves/rat aorta)): 0.67 ± 0.04 µg/mL
Structure (SMILES): O=C(O[C@@H]1[C@@H](c2c(O)cc(O)c3c2O[C@H](c2ccc(O)c(O)c2)[C@H](OC(=O)c2cc(O)c(O)c(O)c2)C3)c2c(O)cc(O)cc2O[C@@H]1c1ccc(O)c(O)c1)c1cc(O)c(O)c(O)c1 (single isomer, unassigned; peak f2) [peak F2, epicatechin-galloyl-epicatechin-gallate]
threshold concentration (for 10% relaxation) [1]: approximately 0.35 μg/ml
threshold concentration (for 10% relaxation) ([1]; molar value printed in brackets): ~0.4 µM
EDR activity (relaxation of endothelium-intact rings) [1]: relaxed
EDR activity (relaxation of endothelium-intact rings) ([1]; listed as dimer digallate): substantial EDR activity
relaxing activity on endothelium-denuded rings [2]: no effect

Structure (SMILES): N=C(N)NCCC[C@H](N)C(=O)O [L-arginine, reference compound]
effect on the B2-di-gallate-induced relaxation of intact rings ([1]; added to the bath after peak F2, L-arginine added after NNA): caused the tissue to relax once again

Structure (SMILES): Oc1cc(O)c2c(c1)OC(c1ccc(O)c(O)c1)C(O)C2O (stereo not drawn) [leucocyanidol]
EDR activity (previous studies) [3]: some activity at lower concentrations
